B1: IL-10: interleukin-10 produced by known recombinant DNA technology, 1 ng/ml (Reference Example 19) (protein, UniProt P18893 19-178, looked up)
Interleukin-10: SRGQYSREDNNCTHFPVGQSHMLLELRTAFSQVKTFFQTKDQLDNILLTDSLMQDFKGYLGCQALSEMIQFYLVEVMPQAEKHGPEIKEHLNSLGEKLKTLRMRLRRCHRFLPCENKSKAVEQVKSDFNKLQDQGVYKAMNEFDIFINCIEAYMMIKMKS

Assays:
[1] = tested on: MBD-1; experiment: MBD-1 production of epidermal keratinocytes cultured with recombinant CCL2 and/or IL-10; type: cell-based, mouse; conditions: recombinant CCL2 5 ng/ml and/or IL-10 1 ng/ml; 48 hours
Procedure: Epidermal keratinocytes (2×10^6 cells/ml) collected from the skin of a normal mouse were cultured at 37° C. in the co-presence of CCL2 (5 ng/ml) (Reference Example 18), IL-10 (1 ng/ml) (Reference Example 19), or CCL2 (5 ng/ml) and IL-10 (1 ng/ml) (Reference Example 20), which had been produced by a known recombinant DNA technology using a recombinant. The amount of MBD-1 in the supernatant of the culture fluid after 48 hours from the initiation of culture was measured by ELISA.

[2] = tested on: IL-10; experiment: IL-10 production by Gr-1+CD11b+ cells (ELISA); type: cell-based, mouse; conditions: 10 μg/ml; 48 hours; vs no glycyrrhizin
Procedure: (§1) A normal mouse was given a burn injury on its dorsal side, and after 12 hours, Gr-1^+CD11b^+ cells (2×10^6 cells/ml) were collected from the skin tissue around the burn site. Using the keratinocyte culture medium as a medium, the Gr-1^+CD11b^+ cells were cultured in a 96-well plate at 37° C. in the co-present of glycyrrhizin in an amount of 10 μg/ml. After 48 hours from the initiation of culture, the amounts of CCL2 and IL-10 in the supernatant of the culture fluid were measured by ELISA. […] The experiment was carried out in the same manner as in Example 10, except that glycyrrhizin was not made to be co-present, and the amounts of CCL2 and IL-10 in the supernatant of the culture fluid were measured.

[3] = tested on: MBD-3; experiment: Amount of MBD-3 in culture supernatant of LPS-treated epidermal keratinocytes and/or Gr-1+CD11b+ cells (Transwell, ELISA); type: cell-based, mouse; conditions: 10 μg/ml, 48 hours
Procedure: (§2) Epidermal keratinocytes (EK) were collected from the skin of a normal mouse, and a cell solution was prepared to a concentration of 2×10^6 cells/ml using RPMI1640 medium supplemented with 10% inactivated fetal bovine serum. In order to induce MBD-3, the cells were treated with lipopolysaccharides (LPS) in an amount of 1 μg/ml for 6 hours. Furthermore, a normal mouse was given a burn injury on its dorsal side, and after 12 hours, Gr-1^+CD11b^+ cells were collected from the skin tissues around the burn site. A cell solution of the collected cells was prepared to a concentration of 5×10^5 cells/ml using RPMI1640 medium supplemented with 10% inactivated fetal bovine serum. In the co-presence of glycyrrhizin in an amount of 10 μg/ml, the LPS-treated epidermal keratinocytes and the Gr-1^+CD11b^+ cells were cultured in a same Transwell at 37° C. After 48 hours from the initiation of culture, the amount of MBD-3 in the supernatant of the culture fluid was measured by ELISA. The experiment was carried out in the same manner as in Example 5, except that glycyrrhizin was not allowed to be co-present, and the amount of MBD-3 in the supernatant of the culture fluid was measured. The experiment was carried out in the same manner as in Example 5, except that only LPS-treated epidermal keratinocytes (2×10^6 cells/ml) were cultured without allowing glycyrrhizin to be co-present, and the amount of MBD-3 in the supernatant of the culture fluid was measured. The experiment was carried out in the same manner as in Example 5, except that only LPS-treated epidermal keratinocytes (2×10^6 cells/ml) were cultured in the co-presence of glycyrrhizin in an amount of 10 μg/ml, and the amount of MBD-3 in the supernatant of the culture fluid was measured. The experiment was carried out in the same manner as in Example 5, except that only Gr-1^+CD11b^+ cells (5×10^5 cells/ml) were cultured without allowing glycyrrhizin to be co-present, and the amount of MBD-3 in the supernatant of the culture fluid was measured.

[4] = tested on: Pseudomonas aeruginosa; experiment: Amount of Pseudomonas aeruginosa in blood and spleen homogenate specimens of infected burn mice (colony counting); type: in vivo; conditions: 100 CFU, 10 mg/kg i.p. at 2 and 12 hours after infection, 48 hours after infection
Procedure: A normal mouse was given a burn injury on its dorsal side, and was infected at the burn site with Pseudomonas aeruginosa in an amount of 100 CFU. Subsequently, glycyrrhizin was intraperitoneally administered to the mouse at 2 hours and 12 hours after the infection with Pseudomonas aeruginosa, each time in an amount of 10 mg per kilogram of body weight of the mouse (an amount of 10 mg/kg). Subsequently, after 48 hours from the infection with Pseudomonas aeruginosa, blood and spleen were collected from the mouse, and the amounts of Pseudomonas aeruginosa in the blood specimen and the spleen homogenate specimen were measured by a colony-counting method. The vertical axis of the graph of FIG. 4 represents the amount of Pseudomonas aeruginosa in 1 ml of the specimen (amount of CFU). The experiment was carried out in the same manner as in Example 2, except that physiological saline was intraperitoneally administered instead of glycyrrhizin, and the amounts of Pseudomonas aeruginosa in the blood specimen and the spleen homogenate specimen were measured.

[5] = tested on: CCL2; experiment: CCL2 production by Gr-1+CD11b+ cells (ELISA); type: cell-based, mouse; conditions: 10 μg/ml; 48 hours; vs no glycyrrhizin
Procedure: as §1

[6] = tested on: Pseudomonas aeruginosa; experiment: Survival rate of burn-injured, Pseudomonas aeruginosa-administered mice; type: in vivo, mouse
Procedure: A normal mouse was given a burn injury on the dorsal side, and Pseudomonas aeruginosa was applied to the burn site in an amount of 100 CFU (Colony-Forming Units). Subsequently, glycyrrhizin was intraperitoneally administered to the mouse at 2 hours, 24 hours and 72 hours after the occurrence of burn injury, each time in an amount of 10 mg per kilogram of body weight of the mouse (an amount of 10 mg/kg), and it was checked whether the mouse was alive or dead. The same operation was carried out on 10 mice, and the survival rate of the mice was checked. The horizontal axis of the graph of FIG. 1 represents the number of days (days) after the Pseudomonas aeruginosa infection.
The experiment was carried out in the same manner as in Example 1, except that physiological saline was intraperitoneally administered instead of glycyrrhizin, and the survival rate of the mice was checked.

[7] = tested on: MBD-1; experiment: Quantity-dependency of glycyrrhizin on MBD-1 production ability restoration (Transwell co-culture, ELISA); type: cell-based, mouse; conditions: 48 hours
Procedure: Epidermal keratinocytes (2×10^6 cells/ml) were collected from the skin of a normal mouse. Furthermore, a normal mouse was given a burn injury on its dorsal side, and after 12 hours, Gr-1^+CD11b^+ cells (5×10^5 cells/ml) were collected from the skin tissues around the burn site. Using the medium for keratinocyte culture as a medium, and making glycyrrhizin to be co-present in an amount of 1 μg/ml (Example 6), 10 μg/ml (Example 7), 100 μg/ml (Example 8) or 300 μg/ml (Example 9), the epidermal keratinocytes and the Gr-1^+CD11b^+ cells were cultured in a same Transwell at 37° C. The amount of MBD-1 in the supernatant of the culture fluid after 48 hours from the initiation of culture was measured by ELISA. The results are shown in the semilogarithmic graph of FIG. 8. The experiment was carried out in the same manner as in Examples 6 to 9, except that glycyrrhizin was not made to be co-present, and the amount of MBD-1 in the supernatant of the culture fluid was measured. The results are shown in the bar graph of FIG. 8. […] Furthermore, the two graphs share the vertical axis (the amount of MBD-1).

[8] = tested on: MBD-1; experiment: Amount of MBD-1 in culture supernatant of epidermal keratinocytes and/or Gr-1+CD11b+ cells (Transwell, ELISA); type: cell-based, mouse; conditions: 10 μg/ml, 48 hours
Procedure: as §2, with “serum.” for “serum. In order to induce MBD-3, the cells were treated with lipopolysaccharides (LPS) in an amount of 1 μg/ml for 6 hours.”, “the” for “the LPS-treated”, “MBD-1” for “MBD-3”, “4,” for “5,”, “only” for “only LPS-treated”

[9] = tested on: MBD-1; experiment: Amount of MBD-1 in skin tissue homogenate around the burn site (ELISA); type: in vivo; conditions: 10 mg/kg i.p. 2 hours after burn, skin collected 0.5-24 hours after burn
Procedure: A normal mouse was given a burn injury on its dorsal side, and was intraperitoneally administered with glycyrrhizin in an amount of 10 mg per kg of body weight of the mouse (an amount of 10 mg/kg), 2 hours after the occurrence of burn injury. The skin tissue was collected from the surroundings of the burn site after 0.5 hours, 6 hours, 12 hours, 18 hours and 24 hours from the occurrence of burn injury, and the collected skin tissues were homogenized. The amount of MBD-1 in the homogenate liquid was measured by ELISA. The horizontal axis of the graph of FIG. 5 represents the time (hours) after the occurrence of burn injury. The experiment was carried out in the same manner as in Example 3, except that physiological saline was intraperitoneally administered instead of glycyrrhizin, and the amount of MBD-1 in the homogenate liquid was measured.

Molecule	MBD-1 production ability of the epidermal keratinocytes [1]	IL-10 production ability of Gr-1+CD11b+ cells [2]	MBD-3 production ability promoting effect against LPS-treated epidermal keratinocytes ([3]; LPS-treated epidermal keratinocytes alone)	amount of MBD-3 in culture supernatant vs no glycyrrhizin ([3]; co-culture of LPS-treated epidermal keratinocytes and Gr-1+CD11b+ cells)	MBD-3 production ability inhibiting effect of Gr-1+CD11b+ cells against LPS-treated epidermal keratinocytes ([3]; co-culture)	amount of Pseudomonas aeruginosa in the blood specimen vs saline mouse [4]	amount of Pseudomonas aeruginosa in the spleen homogenate specimen vs saline mouse [4]	CCL2 production ability of Gr-1+CD11b+ cells [5]	deaths among the mice (survival) ([6]; 100 CFU P. aeruginosa at burn site, 10 mg/kg i.p. at 2, 24 and 72 hours after burn, up to the 7th day, 10 mice)	survival rate compared with mice not administered with glycyrrhizin (physiological saline) ([6]; 100 CFU P. aeruginosa, 10 mg/kg i.p. at 2, 24 and 72 hours, after 2 days and on)	MBD-1 production ability restoring effect ([7]; glycyrrhizin 10 μg/ml (Example 7))	MBD-1 production ability restoring effect ([7]; glycyrrhizin 100 μg/ml (Example 8))	MBD-1 production ability restoring effect ([7]; glycyrrhizin 300 μg/ml (Example 9))	amount of MBD-1 in culture supernatant vs no glycyrrhizin ([8]; co-culture of epidermal keratinocytes and Gr-1+CD11b+ cells)	MBD-1 production ability inhibiting effect of Gr-1+CD11b+ cells against epidermal keratinocytes ([8]; co-culture)	MBD-1 production ability promoting effect against epidermal keratinocytes ([8]; epidermal keratinocytes alone)	amount of MBD-1 in skin tissue homogenate vs saline mouse [9]
CCL2: chemokine CCL2 produced by known recombinant DNA technology, 5 ng/ml (Reference Example 18)	inhibited	–	–	–	–	–	–	–	–	–	–	–	–	–	–	–	–
CC1(C)[C@@H](O[C@H]2O[C@H](C(=O)O)[C@@H](O)[C@H](O)[C@H]2O[C@@H]2O[C@H](C(=O)O)[C@@H](O)[C@H](O)[C@H]2O)CC[C@]2(C)[C@H]3C(=O)C=C4[C@@H]5C[C@@](C)(C(=O)O)CC[C@]5(C)CC[C@@]4(C)[C@]3(C)CC[C@@H]12 [glycyrrhizin]	–	inhibited	did not have an MBD-3 production ability promoting effect	larger	reduced this inhibiting effect	markedly reduced	markedly reduced	inhibited	none of the individuals died	markedly high	particularly excellent	particularly excellent	particularly excellent	larger	reduced this inhibiting effect	did not have an MBD-1 production ability promoting effect	larger
B1	inhibited	–	–	–	–	–	–	–	–	–	–	–	–	–	–	–	–
